Measurements: PMC9739398, “Substrate Specificity of GSDA Revealed by Cocrystal Structures and Binding Studies” (International Journal of Molecular Sciences, 2022)

How the values were obtained:
[1] = target: T1, AtGSDA (Arabidopsis thaliana, UniProt Q94BU8); test: thermal shift; deamination by mass spectrometry; assay type: biochemical; conditions: weak substrate; crystal soak reached product stage
T1 construct: gene GSDA; SF form, Ser29-Tyr185, N-terminal 6xHis tag (pET-28a), recombinant, homodimer, zinc enzyme; full-length in pET-21b also made
T1 sequence (Q94BU8 29-185): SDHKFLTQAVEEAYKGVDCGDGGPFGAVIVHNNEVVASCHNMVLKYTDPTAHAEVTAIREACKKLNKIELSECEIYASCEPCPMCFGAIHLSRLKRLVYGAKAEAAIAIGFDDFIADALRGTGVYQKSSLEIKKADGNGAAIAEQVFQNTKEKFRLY

[2] = target: T2, GDA (Escherichia coli, UniProt P76641); test: deamination by mass spectrometry; thermal shift; assay type: biochemical; conditions: enzyme:substrate 1:100; 50 mM sodium bicarbonate, neutral
T2 construct: gene guaD; recombinant, purified as in a cited protocol
T2 sequence (P76641 1-439): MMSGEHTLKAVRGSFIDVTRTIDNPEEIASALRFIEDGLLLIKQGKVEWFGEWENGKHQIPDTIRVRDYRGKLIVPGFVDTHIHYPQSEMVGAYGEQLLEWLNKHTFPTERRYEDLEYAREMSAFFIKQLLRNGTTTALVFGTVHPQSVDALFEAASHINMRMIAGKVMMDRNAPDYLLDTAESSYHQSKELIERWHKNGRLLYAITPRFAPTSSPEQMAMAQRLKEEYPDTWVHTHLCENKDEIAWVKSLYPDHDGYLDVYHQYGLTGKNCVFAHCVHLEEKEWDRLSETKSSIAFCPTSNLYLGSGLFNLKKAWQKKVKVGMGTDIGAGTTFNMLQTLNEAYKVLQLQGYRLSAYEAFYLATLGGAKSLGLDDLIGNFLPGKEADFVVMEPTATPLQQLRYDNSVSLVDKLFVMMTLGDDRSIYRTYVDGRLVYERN

[3] = target: T3, AtGSDA (Arabidopsis thaliana, UniProt Q94BU8, Y185E); test: thermal shift; assay type: binding
T3 construct: gene GSDA; SF form, Ser29-Tyr185, N-terminal 6xHis tag (pET-28a), recombinant, homodimer, zinc enzyme; full-length in pET-21b also made
T3 sequence (Q94BU8 29-185 Y185E): as the sequence (Q94BU8 29-185) above, with Y157E counted along it

[4] = target: T4, AtGSDA (Arabidopsis thaliana, UniProt Q94BU8, E82Q); test: thermal shift; assay type: binding; conditions: catalytically impaired
T4 construct: gene GSDA; SF form, Ser29-Tyr185, N-terminal 6xHis tag (pET-28a), recombinant, homodimer, zinc enzyme; full-length in pET-21b also made
T4 sequence (Q94BU8 29-185 E82Q): as the sequence (Q94BU8 29-185) above, with E54Q counted along it

[5] = target: T5, AtGSDA (Arabidopsis thaliana, UniProt Q94BU8, Y185K); test: thermal shift; assay type: binding
T5 construct: gene GSDA; SF form, Ser29-Tyr185, N-terminal 6xHis tag (pET-28a), recombinant, homodimer, zinc enzyme; full-length in pET-21b also made
T5 sequence (Q94BU8 29-185 Y185K): as the sequence (Q94BU8 29-185) above, with Y157K counted along it

[6] = target: T6, AtGSDA (Arabidopsis thaliana, UniProt Q94BU8, Y185F); test: crystal structure; thermal shift; assay type: binding; conditions: one ligand per dimer, substrate form
T6 construct: gene GSDA; SF form, Ser29-Tyr185, N-terminal 6xHis tag (pET-28a), recombinant, homodimer, zinc enzyme; full-length in pET-21b also made
T6 sequence (Q94BU8 29-185 Y185F): as the sequence (Q94BU8 29-185) above, with Y157F counted along it

[7] = target: T1, AtGSDA; test: crystal structure; thermal shift; assay type: binding; conditions: active site, described as competitive inhibitor
[8] = target: T6, AtGSDA; test: thermal shift; assay type: binding
[9] = target: T1, AtGSDA; test: thermal shift (dye); crystal structure (product formed from soaked guanosine); assay type: binding; conditions: printed as nearly 2; zinc enzyme; active site
[10] = target: T1, AtGSDA; test: thermal shift (dye); deamination by mass spectrometry; assay type: biochemical; conditions: printed as nearly 2; turned over to 2'-O-methylxanthosine

`CNc1nc2c(ncn2[C@@H]2O[C@H](CO)[C@@H](O)[C@H]2O)c(=O)[nH]1` [compound 2, N^2-methylguanosine] was tested, and the ΔTm [1] was “the inhibitors Ado/isoG or the weak substrate N^2-mG normally lacked one or two functional groups”.

`Nc1nc2[nH]cnc2c(=O)[nH]1` [guanine] was tested, and the ΔTm [2] was “GDA showed excellent deamination capability by converting almost all of the guanine substrate”.

For `Nc1nc2c(ncn2[C@@H]2O[C@H](CO)[C@@H](O)[C@H]2O)c(=O)[nH]1` [guanosine], the ΔTm [3] was “WT and Y185F/E showed similar binding affinities toward the ligands”, the ΔTm [4] was “the Y185K and E82Q mutants showed differentially reduced affinities” and the ΔTm [5] was “the Y185K and E82Q mutants showed differentially reduced affinities”. The ΔTm [6] was “the Y185F-Gua structure indicated that only one Gua molecule was bound”.

`Nc1ncnc2c1ncn2[C@@H]1O[C@H](CO)[C@@H](O)[C@H]1O` [compound 3, adenosine] was tested, and the ΔTm [7] was “The ligand adenosine (Ado) maintained its interactions with Ala81 and Asn69 via N6”.

In the case of `O=c1[nH]cnc2c1ncn2[C@@H]1O[C@H](CO)[C@@H](O)[C@H]1O` [compound 4, inosine], the ΔTm [7] is reported as “The binding position was almost unchanged when compared to Gua bound by AtGSDA”.

For `O=c1[nH]c(=O)c2ncn([C@@H]3O[C@H](CO)[C@@H](O)[C@H]3O)c2[nH]1` [xanthosine], the ΔTm [3] was “WT and Y185F/E showed similar binding affinities toward the ligands”, the ΔTm [8] was “WT and Y185F/E showed similar binding affinities toward the ligands” and the ΔTm [9] was ~ 2 °C.

For `Nc1nc(=O)[nH]c2c1ncn2[C@@H]1O[C@H](CO)[C@@H](O)[C@H]1O` [compound 5, isoguanosine], the ΔTm ([7]; 2-keto group ligates zinc) was “its binding mode was similar to that of Xan (Figure 3c, PDB 7DM6)”.

In the case of `CO[C@@H]1[C@H](O)[C@@H](CO)O[C@H]1n1cnc2c(=O)[nH]c(N)nc21` [compound 1, 2′-O-methylguanosine], the ΔTm [10] is reported as ~ 2 °C.
